Results reported in patent US20230115907A1, “HETEROCYCLIC COMPOUND AND PHARMACEUTICAL COMPOSITION, PREPARATION METHOD, INTERMEDIATE AND USE THEREOF” (EVOPOINT BIOSCIENCES CO., LTD., priority 2019, published 2023).

Key:
[1] = In vivo pharmacokinetics after intragastric administration in mice; details: single intragastric administration, 20 mg/kg
Method: Male 1CR mice were divided into different groups with 3 mice in each group, and single intragastric administration was conducted for each group. The compounds were each formulated with 10% DMSO/10% Solutol/80% ([…]) to reach an appropriate concentration and then administered intragastrically at 20 mg/kg. Blood was taken 5 min, 15 min, 30 min, 1 h, 2 h, 4 h, 6 h, 8 h and 24 h after administration, and then subjected to EDTA-K2 anticoagulation. The concentration of the compound in the plasma was quantitatively detected by an LC-MS/MS method.

[2] = tested on: human colon cancer cells HCT116 xenograft tumor; experiment: In vivo efficacy in subcutaneous xenograft tumor model of human colon cancer cells HCT116; set-up: species or system BALB/c nude mice; details: for Tumor inhibition rate (TGI): day 21; for % proliferation percentage of tumor volume (Day 21 after grouping) / Tumor volume (day 21 after grouping): mean value ± standard error
Method: HCT116 tumor cells used in this test were purchased from ATCC. HCT116 tumor cells were cultured in McCoy's 5a medium containing inactivated 10% fetal bovine serum, 100 U/mL penicillin, 100 μg/mL streptomycin and 2 mM glutamine in an incubator at 37° C./5% CO2. The cells were divided and transferred to other bottles every 3 to 4 days for passaging when the culture bottle was full of cells. The tumor cells in the logarithmic growth phase were used for tumor seeding in vivo.
HCT116 tumor cells resuspended in serum-free McCoy's 5a culture solution were seeded subcutaneously into the right costal part of male BALB/c nude mice at 5×10^6/0.1 mL. When the tumor grew to 101 mm^3, animals with uniform tumor volume were selected and divided into groups with 8 animals in each group for administration, and the specific administration regimens are shown in Table 6 below.
Tumor volume: the long and short diameters of the tumor were measured twice every week using a vernier caliper for calculating the tumor volume, and the calculation formula was:
volume=0.5×long diameter×short diameter^2.
[…]=mean value of relative tumor volume of treatment group/mean value of relative tumor volume of control group×100
Tumor growth inhibition rate(TGI,%)=(1−T/C)×100
Statistical analysis between groups was performed for tumor volume using One-Way ANOVA test, and a significant difference was considered to be present when p<0.05.

[3] = In vivo pharmacokinetics after intragastric administration in rats; set-up: species or system SD rats; details: single intragastric administration, 40 mg/kg
Method: Male SD rats were divided into different groups with 3 rats in each group, and single intragastric administration was conducted for each group. The compounds were each formulated with 10% DMSO/10% Solutol/80% (20% Captisol) to reach an appropriate concentration and then administered intragastrically at 40 mg/kg. Blood was taken 5 min, 15 min, 30 min, 1 h, 2 h, 4 h, 6 h, 8 h and 24 h after administration, and then subjected to EDTA-K2 anticoagulation. The concentration of the compound in the plasma was quantitatively detected by an LC-MS/MS method.

HCC70 cells = experiment: Inhibition of cell proliferation, CellTiter-Glo, HCC70; type: cell-based; details: Homo sapiens, HCC70, 72 h
Method: (§1) The compounds were each prepared with 100% DMSO into 10 mM mother liquor.
(§2) HCC70 cells and OVCAR3 cells were digested and counted. Cells were diluted to an appropriate concentration according to cell density. 100 μL of cells were added to each well of a 96-well plate. Medium wells served as blank control (Min). The cells were incubated overnight in an incubator at 37° C./5% CO2.
(§3) A 200-fold stock solution of a compound was prepared with DMSO, and the compound was diluted with growth medium to a 3-fold stock solution, i.e., […] of each of 200-fold stock solutions of compound at different concentrations was added to 197 μL of medium. 50 μL of diluted compound was added to each well and the mixture was incubated at 37° C./5% CO2 for 72 h.
(§4) The 96-well plate was equilibrated to room temperature before detection. 40 μL of CellTiter-Glo solution was added to each well. The mixture was mixed for 2 min using a horizontal shaker to induce cell lysis. The mixture was incubated at room temperature for 60 min to stabilize […] signals. Fluorescence values were read on ENVISION.
(§5) (1) Data was analyzed by GraphPad Prism 5
(§6) (2) % inhibition rate=(maximum signal−compound signal)/(maximum signal−minimum signal)×100
(§7) (3) Maximum signal: signal of DMSO well
(§8) (4) Minimum signal: signal of medium well
(§9) The effect of SZ-015200, SZ-015256 and SZ-015268 on cell proliferation after incubation with HCC70, OVCAR-3, HCT116 and HCC1806 cells for 3 days was detected according to the method described in Efficacy Example 2, and the results are shown in Table 3.

OVCAR3 cells = experiment: Inhibition of cell proliferation, CellTiter-Glo, OVCAR3; type: cell-based; details: Homo sapiens, OVCAR-3, 72 h
Method: as §1, §2, §3, §4, §5, §6, §7, §8, §9

CDK7/Cyclin H/MAT1 = CDK7/Cyclin H/MAT1 (Homo sapiens, UniProt P50613); experiment: CDK7 inhibition, mobility shift assay
Chain of CDK7/Cyclin H/MAT1 (P50613 whole entry): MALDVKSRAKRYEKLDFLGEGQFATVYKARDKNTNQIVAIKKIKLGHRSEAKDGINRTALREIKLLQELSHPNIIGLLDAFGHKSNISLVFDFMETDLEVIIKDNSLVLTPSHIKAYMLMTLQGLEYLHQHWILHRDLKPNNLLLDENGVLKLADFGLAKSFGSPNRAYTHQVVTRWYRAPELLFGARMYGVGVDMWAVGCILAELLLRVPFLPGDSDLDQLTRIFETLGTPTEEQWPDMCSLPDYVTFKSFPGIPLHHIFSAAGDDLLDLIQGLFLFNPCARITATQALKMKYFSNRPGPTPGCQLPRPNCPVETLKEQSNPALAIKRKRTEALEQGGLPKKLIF
Chain of CDK7/Cyclin H/MAT1 (P51946 whole entry partner): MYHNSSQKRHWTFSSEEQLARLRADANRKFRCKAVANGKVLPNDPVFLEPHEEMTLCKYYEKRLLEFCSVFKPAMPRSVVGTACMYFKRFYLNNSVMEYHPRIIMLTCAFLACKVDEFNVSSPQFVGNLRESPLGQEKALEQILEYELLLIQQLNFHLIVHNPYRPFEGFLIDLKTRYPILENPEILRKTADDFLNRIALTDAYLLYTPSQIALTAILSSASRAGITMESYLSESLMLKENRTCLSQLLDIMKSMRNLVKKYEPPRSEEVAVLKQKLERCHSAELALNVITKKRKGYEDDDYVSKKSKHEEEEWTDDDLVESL
Chain of CDK7/Cyclin H/MAT1 (P51948 whole entry partner): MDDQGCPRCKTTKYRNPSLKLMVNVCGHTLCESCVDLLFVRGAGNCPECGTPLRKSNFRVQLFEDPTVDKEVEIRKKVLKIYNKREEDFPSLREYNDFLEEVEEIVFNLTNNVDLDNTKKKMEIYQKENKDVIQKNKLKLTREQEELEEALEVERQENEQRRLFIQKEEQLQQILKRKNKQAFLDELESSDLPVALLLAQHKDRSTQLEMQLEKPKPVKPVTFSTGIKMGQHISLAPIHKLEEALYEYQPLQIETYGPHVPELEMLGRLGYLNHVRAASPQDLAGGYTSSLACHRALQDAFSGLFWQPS
Method: The initial concentration of compound was 10 μM, and the compound was 3-fold diluted to obtain 10 concentrations. Duplicate wells were set for the assay, and the pre-incubation time of compound and enzyme was 60 min.
Compound powders were dissolved in 100% DMSO to prepare 10 mM stock solution, which was 3-fold diluted with DMSO, with 0.5 mM as the initial concentration, to obtain 10 concentration gradients of compound solutions.
(1) Compound at each concentration was 8.3-fold diluted with ddH2O, and then 2 μL of each compound solution and positive control were added to a 384-well plate.
(2) 5 μL of a kinase working solution (CDK7/Cyclin H/MAT1) was added to the compound wells and positive control wells to make the final concentration of CDK7 be 3 nM.
(3) The plate was pre-incubated at room temperature for 60 min.
(5) The 384-well plate was incubated at 27° C. for 36 min.
(6) 4 μL of 80 mM EDTA was added to terminate the reaction.
(7) The conversion rates were read using a Caliper EZ Reader II.

HCT116 cells = experiment: Inhibition of cell proliferation, CellTiter-Glo, HCT116; type: cell-based; details: Homo sapiens, HCT-116, 72 h; Efficacy Example 3 (Table 3), incubation for 3 days
Method: as §2, §3, §4, §6, §9

HCC1806 cells = experiment: Inhibition of cell proliferation, CellTiter-Glo, HCC1806; type: cell-based; details: Homo sapiens, HCC1806, 72 h; Efficacy Example 3 (Table 3), incubation for 3 days
Method: as §2, §3, §4, §6, §9

[4] = Efficacy Example 2 (Table 2), 72 h incubation
[5] = Efficacy Example 3 (Table 3), incubation for 3 days

**Q.** Which results are given for `Cc1nc(NC2CCN(C(=O)O[C@H]3CCN(C(=O)/C=C/CN(C)C)C3)CC2)n2ncc(C(C)C)c2n1` [SZ-015256, (S,E)-1-(4-(dimethylamino)but-2-enoyl)pyrrolidin-3-yl 4-((8-isopropyl-2-methylpyrazolo[1,5-a][1,3,5]triazin-4-yl)amino)piperidine-1-carboxylate]?
**A.** AUC(0-inf) ([1]; male, ICR, mouse, po, plasma): 6380 ng·h/mL; AUC(0-t) ([1]; male, ICR, mouse, po, plasma): 6260 ng·h/mL; Cmax ([1]; male, ICR, mouse, po, plasma): 3380 ng/mL; Tmax ([1]; male, ICR, mouse, po, plasma): 0.5 h; half-life ([1]; male, ICR, mouse, po, plasma): 1.48 h; Cmax and AUC compared with the control compound SZ-015200 ([1]; in words): significantly higher; Tumor inhibition rate (TGI) ([2]; 15 mg/kg p.o. QD × 21 days): 61.6%; % proliferation percentage of tumor volume (Day 21 after grouping) ([2]; 15 mg/kg p.o. QD × 21 days): 407 ± 40%; Tumor volume (day 21 after grouping) ([2]; 15 mg/kg p.o. QD × 21 days): 402 ± 42 mm^3; Tumor inhibition rate (TGI) ([2]; 25 mg/kg p.o. QD × 21 days): 81.9%; % proliferation percentage of tumor volume (Day 21 after grouping) ([2]; 25 mg/kg p.o. QD × 21 days): 192 ± 38%; Tumor volume (day 21 after grouping) ([2]; 25 mg/kg p.o. QD × 21 days): 201 ± 43 mm^3; Effect on inhibiting tumor proliferation compared with the control compound SZ-015200 (in words) ([2]; HCT116 xenograft, p.o. QD × 21 days): stronger effect on inhibiting tumor proliferation; Anti-tumor effect (in words) ([2]; SZ-015256: 25 mg/kg and 15 mg/kg treatment groups, SZ-015268 and SZ-015200: 25 mg/kg treatment group): significant anti-tumor effect; AUC(0-inf) ([3]; male, SD, rat, po, plasma): 7880 ng·h/mL; AUC(0-t) ([3]; male, SD, rat, po, plasma): 7830 ng·h/mL; Cmax ([3]; male, SD, rat, po, plasma): 783 ng/mL; Tmax ([3]; male, SD, rat, po, plasma): 4.67 h; half-life ([3]; male, SD, rat, po, plasma): 2.99 h; Cmax and AUC compared with the control compound SZ-015200 ([3]; in words): The results show that compared with the control compound SZ-015200, the Cmax and the AUC of SZ-015256 and SZ-015268 in rats after single intragastric administration were significantly higher, which indicates that SZ-015256 and SZ-015268 have better pharmacokinetic properties.; IC50 (HCC70 cells; [4]): 0.175 µM; IC50 (HCC70 cells; [5]): 0.0508 µM; IC50 (OVCAR3 cells; [4]): 0.0751 µM; IC50 (OVCAR3 cells; [5]): 0.0453 µM; IC50 (CDK7/Cyclin H/MAT1): 0.0543 µM; IC50 (HCT116 cells): 0.0253 µM; IC50 (HCC1806 cells): 0.0445 µM
